Consider 8 molecules from ChEMBL document CHEMBL1134755, “B-ring substituted 5,7-dihydroxyflavonols with high-affinity binding to P-glycoprotein responsible for cell multidrug resistance” (Bioorg Med Chem Lett, 2001).

Molecules are shown by their SMILES. pKd: −log10 of the molar value.

In series [1] the target is T1, ATP-dependent translocase ABCB1 (Mus musculus, UniProt P21447). Put plainly: Binding affinity to nucleotide-binding domain (NBD2) of P-Glycoprotein.
Series [2] concerns the target T1, ATP-dependent translocase ABCB1. The experiment in a line: Percent of maximal quenching fluorescence for binding analysis to nucleotide-binding domain (NBD2) of P-Glycoprotein was determined.

T1 sequence (P21447 whole entry, the tested form may be a part): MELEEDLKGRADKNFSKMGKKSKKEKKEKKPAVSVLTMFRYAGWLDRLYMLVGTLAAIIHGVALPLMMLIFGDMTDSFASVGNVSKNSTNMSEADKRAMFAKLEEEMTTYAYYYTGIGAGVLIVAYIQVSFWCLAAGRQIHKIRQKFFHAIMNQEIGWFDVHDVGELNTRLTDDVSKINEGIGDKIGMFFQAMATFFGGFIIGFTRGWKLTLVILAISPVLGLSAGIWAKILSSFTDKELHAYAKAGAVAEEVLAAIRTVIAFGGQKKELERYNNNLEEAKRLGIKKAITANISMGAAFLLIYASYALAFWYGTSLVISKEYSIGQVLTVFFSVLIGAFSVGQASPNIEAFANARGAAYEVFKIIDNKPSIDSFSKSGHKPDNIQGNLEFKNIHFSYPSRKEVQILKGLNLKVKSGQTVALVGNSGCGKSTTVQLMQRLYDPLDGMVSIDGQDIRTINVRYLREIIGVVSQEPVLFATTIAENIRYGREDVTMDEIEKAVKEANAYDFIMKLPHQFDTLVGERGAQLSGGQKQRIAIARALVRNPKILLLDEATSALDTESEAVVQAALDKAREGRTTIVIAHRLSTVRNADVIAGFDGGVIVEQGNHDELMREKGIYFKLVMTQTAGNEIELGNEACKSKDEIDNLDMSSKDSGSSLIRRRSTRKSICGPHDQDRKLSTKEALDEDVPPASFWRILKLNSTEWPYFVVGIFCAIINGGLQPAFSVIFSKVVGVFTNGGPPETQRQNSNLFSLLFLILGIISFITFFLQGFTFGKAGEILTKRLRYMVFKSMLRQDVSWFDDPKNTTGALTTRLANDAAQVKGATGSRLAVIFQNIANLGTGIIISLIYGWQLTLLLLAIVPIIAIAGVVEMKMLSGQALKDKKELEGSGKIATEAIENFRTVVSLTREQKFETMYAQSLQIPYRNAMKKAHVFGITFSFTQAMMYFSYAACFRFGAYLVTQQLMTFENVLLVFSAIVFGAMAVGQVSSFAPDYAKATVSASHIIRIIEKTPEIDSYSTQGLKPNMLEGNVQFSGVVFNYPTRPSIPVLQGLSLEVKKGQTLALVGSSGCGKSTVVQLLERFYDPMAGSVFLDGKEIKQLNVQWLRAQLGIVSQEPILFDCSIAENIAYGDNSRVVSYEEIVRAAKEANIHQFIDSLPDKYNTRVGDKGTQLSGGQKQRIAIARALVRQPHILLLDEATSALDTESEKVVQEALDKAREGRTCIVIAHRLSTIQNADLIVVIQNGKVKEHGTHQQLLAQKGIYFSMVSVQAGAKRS

As usually defined, the pKd is the negative decadic logarithm of the Kd, by convention in mol/L. For the molecule `O=c1c(O)c(-c2ccc(F)cc2)oc2cc(O)cc(O)c12`, in series [1], the pKd is 5.17. The “Delta Fmax” value in series [2] is listed as 91.6%.
Take `O=c1c(O)c(-c2ccc(C(c3ccccc3)c3ccccc3)cc2)oc2cc(O)cc(O)c12`: the negative logarithm of the Kd (pKd) in series [1] is 5.70. Moreover, the “Delta Fmax” value in series [2] was 84.6%.
Taken in the same sequence, the figures for `COc1ccc(-c2oc3cc(O)cc(O)c3c(=O)c2O)cc1` [KAEMPFERIDE] were 5.30 and 96.7%.
Turning to `CCCCCCCCc1ccc(-c2oc3cc(O)cc(O)c3c(=O)c2O)cc1`, the pKd in series [1] is 7.24. Moreover, the “Delta Fmax” value in series [2] was determined as 62.1%.
`O=c1c(O)c(-c2ccc(Cl)cc2Cl)oc2cc(O)cc(O)c12` gave a pKd in series [1] of 5.40. The “Delta Fmax” value in series [2] is given as 85.3%.
`O=c1c(O)c(-c2ccccc2)oc2cc(O)cc(O)c12` [GALANGIN] gave a negative-log Kd (pKd) in series [1] of 5.23. In series [2], the “Delta Fmax” value came out at 95%.
In the same order, the values of `O=c1c(O)c(-c2ccc(I)cc2)oc2cc(O)cc(O)c12` are 5.97 and 95.5%.
Taken in the same sequence, the figures for `O=c1c(O)c(-c2ccc(O)cc2)oc2cc(O)cc(O)c12` [KAEMPFEROL] were 5.17 and 97.6%.
